The record followed here is patent publication US6656941B2, “Aryl substituted tetrahydroindazoles” (Neurogen Corporation, priority 2000, dated 2003).

For `CCCNCCOc1ccc(NC(=O)c2n[nH]c3c2C(=O)CCC3)cn1` [Example 4, 4-Oxo-4,5,6,7-tetrahydro-1H-indazole-3-carboxylic acid [6-(2-propylamino-ethoxy)-pyridin-3-yl]-amide], the melting point (commonly the temperature of the solid-liquid transition) came to 120 °C.
